≈ marks a conversion by molar mass, not a printed value.
Assays:
physchem [1] = assay: physchem
Procedure: An excess amount of the compound to be tested was added to each solvent and the suspensions which formed were heated in sealed containers to 120° C. The solubility of salicylic acid was determined in acidic (HCl) solution.

[2] = ΔH, ΔS and stability constant (Kc) of drug-HPβCD MS 0.6 complexes, effect of PVP (Example 17); format: physicochemical; conditions: for ΔH / ΔS: HPβCD MS 0.6 complex
Procedure: The effect of polyvinylpyrrolidone (PVP) on the enthalpy (ΔH) and the entropy (ΔS) of the stability constant (Kc) of the drug-cyclodextrin complex was determined.
An excess amount of the drug was added to water containing 0, 0.1, 0.25 or 0.5% (w/v) PVP and various amounts of HPβCD or HPαCD.

physchem [3] = assay: physchem; remark: listed apart in the source
physchem [4] = assay: physchem; remark: listed apart in the source
physchem [5] = assay: physchem; remark: listed apart in the source
physchem [6] = assay: physchem; remark: listed apart in the source
physchem [7] = conditions: 10% heβcd
[8] = HPβCD with CMC / HPβCD without polymer (S6)
[9] = HPβCD with HPMC / HPβCD without polymer (S8)
[10] = HPβCD with PVP / HPβCD without polymer (S7)
[11] = 10% ethanol in water, organic solvent or mixture
[12] = 10% ethanol, 10% hpbcd, organic solvent or mixture
[13] = ethanol, cmc, hpbcd, organic solvent or mixture

For `COc1cc(C=O)ccc1O` [Vanillin], the solubility (physchem [1]; 0.25% hpmc + 10% hpβcd) was 26500 µg/mL, the solubility ratio (physchem [1]; [8]) was 1.09 and the solubility ratio (physchem [1]; [9]) was 1.06. For the same compound, the solubility (physchem [1]; aqueous 0.25% cmc) was 13700 µg/mL (≈ 90 mM), the solubility (physchem [1]; aqueous 0.25% cmc, 10% hpβcd) was 27300 µg/mL (≈ 179 mM) and the solubility (physchem [1]; aqueous 0.25% hpmc) was 17100 µg/mL (≈ 112 mM). It also gave a solubility (physchem [1]; aqueous 0.25% pvp) of 11500 µg/mL (≈ 75.6 mM), a solubility (physchem [1]; aqueous 10% hpβcd) of 25000 µg/mL (≈ 164 mM) and a solubility (physchem [1]; water) of 13900 µg/mL (≈ 91.4 mM).
`COc1ccc(O)c(C(C)(C)C)c1` [Butylated hydroxyanisole] gave an S2 solubility (physchem [1]; 0.25% (w/v) CMC) of 400 µg/mL, an S4 solubility (physchem [1]; 0.25% (w/v) HPMC) of 280 µg/mL and an S3 solubility (physchem [1]; 0.25% (w/v) PVP) of 1240 µg/mL. The S6 solubility (physchem [1]; 0.25% CMC and 10% HPβCD MS=0.6 (salicylic acid: acidic HCl solution)) was 14300 µg/mL, the S8 solubility (physchem [1]; 0.25% HPMC and 10% HPβCD MS=0.6 (salicylic acid: acidic HCl solution)) was 15500 µg/mL and the S7 solubility (physchem [1]; 0.25% PVP and 10% HPβCD MS=0.6 (salicylic acid: acidic HCl solution)) was 15800 µg/mL. For the same compound, the S5 solubility (physchem [1]; 10% (w/v) HPβCD MS=0.6 (salicylic acid: acidic HCl solution)) was 13900 µg/mL, the solubility ratio (physchem [1]; [8]) was 1.03 and the solubility ratio (physchem [1]; [9]) was 1.12. For the same compound, the solubility ratio (physchem [1]; [10]) was 1.14 and the S1 solubility (physchem [1]; water) was 400 µg/mL.
For `CC(=O)Nc1nnc(S(N)(=O)=O)s1` [Acetazolamide, acetazolamide], the ΔH ([2]; PVP 0.00% w/v) was -4.4 kcal/mol, the ΔS ([2]; PVP 0.00% w/v) was -26.0 J mol^-1 K^-1 and the ΔH ([2]; PVP 0.10% w/v) was -6.17 kcal/mol. It also gave a ΔS ([2]; PVP 0.10% w/v) of -49.6 J mol^-1 K^-1, a ΔH ([2]; PVP 0.25% w/v) of -5.93 kcal/mol and a ΔS ([2]; PVP 0.25% w/v) of -46.2 J mol^-1 K^-1. For the same compound, the ΔH ([2]; PVP 0.50% w/v) was -6.17 kcal/mol, the ΔS ([2]; PVP 0.50% w/v) was -49.8 J mol^-1 K^-1 and the “increase in apparent stability constant” value ([2]; HPβCD complex, 0.25% PVP (w/v)) was 13%. For the same compound, the solubility (physchem [3]; 0.25% cmc + 10% hpbetacd) was 3110 µg/mL, the solubility (physchem [3]; aqueous 0.25% cmc) was 840 µg/mL (≈ 3.78 mM) and the solubility (physchem [3]; aqueous 10% hpbetacd) was 2520 µg/mL (≈ 11.3 mM). The solubility (physchem [3]; water) was 700 µg/mL (≈ 3.15 mM), the solubility (physchem [4]; 0.10% cmc, 10% hpβcd) was 3600 µg/mL (≈ 16.2 mM) and the solubility (physchem [4]; 0.25% cmc, 10% hpβcd) was 3210 µg/mL (≈ 14.4 mM). It also gave a solubility (physchem [4]; 0.50% cmc, 10% hpβcd) of 3750 µg/mL (≈ 16.9 mM), a solubility (physchem [4]; aqueous 10% hpβcd ms=0.9) of 2520 µg/mL (≈ 11.3 mM) and a solubility at 72 h (physchem [5]; 0.25% pvp, 10% hpβcd) of 3660 µg/mL (≈ 16.5 mM). For the same compound, the solubility at 72 h (physchem [5]; 10% hpβcd ms 0.7) was 2800 µg/mL (≈ 12.6 mM), the solubility at 72 h (physchem [5]; aqueous 0.25% pvp) was 1050 µg/mL (≈ 4.72 mM) and the solubility at 72 h (physchem [5]; water) was 700 µg/mL (≈ 3.15 mM). The solubility (physchem [6]; 0.25% cmc in water) was 840 µg/mL (≈ 3.78 mM), the solubility (physchem [6]; 0.25% cmc, 10% hpbcd) was 3110 µg/mL (≈ 14 mM) and the solubility (physchem [6]; [11]) was 1110 µg/mL (≈ 4.99 mM). The solubility (physchem [6]; 10% ethanol, 0.25% cmc, organic solvent or mixture) was 750 µg/mL (≈ 3.37 mM), the solubility (physchem [6]; [12]) was 2190 µg/mL (≈ 9.85 mM) and the solubility (physchem [6]; 10% hpbcd in water) was 2520 µg/mL (≈ 11.3 mM). The solubility (physchem [6]; [13]) was 2500 µg/mL (≈ 11.2 mM) and the solubility (physchem [6]; water) was 700 µg/mL (≈ 3.15 mM).
In the case of `CC1(C)O[C@@H]2C[C@H]3[C@@H]4CCC5=CC(=O)C=C[C@]5(C)[C@@]4(F)[C@@H](O)C[C@]3(C)[C@]2(C(=O)CO)O1` [Triamcinolone acetonide, triamcinolone acetonide], the solubility (physchem [3]; 0.25% cmc + 10% hpbetacd) is reported as 2580 µg/mL, the solubility (physchem [3]; aqueous 0.25% cmc) is reported as 70 µg/mL (≈ 0.161 mM) and the solubility (physchem [3]; aqueous 10% hpbetacd) is reported as 2090 µg/mL (≈ 4.81 mM). For the same compound, the solubility (physchem [3]; water) was 30 µg/mL (≈ 0.069 mM).
With `CC(C)(O)C(Cl)(Cl)Cl` [Chlorbutol] the solubility (physchem [1]; 0.25% hpmc + 10% hpβcd) was 29900 µg/mL, the solubility (physchem [1]; aqueous 0.25% cmc) was 8410 µg/mL (≈ 47.4 mM) and the solubility (physchem [1]; aqueous 0.25% cmc, 10% hpβcd) was 29300 µg/mL (≈ 165 mM). The solubility (physchem [1]; aqueous 0.25% hpmc) was 8150 µg/mL (≈ 45.9 mM), the solubility (physchem [1]; aqueous 0.25% pvp) was 8410 µg/mL (≈ 47.4 mM) and the solubility (physchem [1]; aqueous 10% hpβcd) was 28600 µg/mL (≈ 161 mM). The solubility (physchem [1]; water) was 8110 µg/mL (≈ 45.7 mM).
`COc1cc(Cc2cnc(N)nc2N)cc(OC)c1OC` [Trimethoprim] showed a solubility at 72 h (physchem [5]; 0.25% pvp, 10% hpβcd) of 6470 µg/mL (≈ 22.3 mM), a solubility at 72 h (physchem [5]; 10% hpβcd ms 0.7) of 2830 µg/mL (≈ 9.75 mM) and a solubility at 72 h (physchem [5]; aqueous 0.25% pvp) of 1350 µg/mL (≈ 4.65 mM). The solubility at 72 h (physchem [5]; water) was 820 µg/mL (≈ 2.82 mM).
`O=C(O)c1ccccc1O` [Salicylic acid] gave a solubility (physchem [1]; 10% hpβcd acidic hcl solution) of 3710 µg/mL (≈ 26.9 mM), a solubility ratio (physchem [1]; [8]) of 1.14 and a solubility ratio (physchem [1]; [9]) of 1.06. It also gave a solubility ratio (physchem [1]; [10]) of 1.10, a solubility (physchem [1]; acidic hcl, cmc, hpβcd) of 4230 µg/mL (≈ 30.6 mM) and a solubility (physchem [1]; hpmc/hpβcd acidic hcl solution) of 3920 µg/mL (≈ 28.4 mM). The solubility (physchem [1]; pvp/hpβcd acidic hcl solution) was 4070 µg/mL (≈ 29.5 mM).
With `C[C@]12CC[C@@H]3c4ccc(O)cc4CC[C@H]3[C@@H]1CC[C@@H]2O` [17β-Estradiol, 17β-estradiol] the ΔH ([2]; PVP 0.00% w/v) was -17 kcal/mol, the ΔS ([2]; PVP 0.00% w/v) was -151 J mol^-1 K^-1 and the ΔH ([2]; PVP 0.10% w/v) was -18 kcal/mol. It also gave a ΔS ([2]; PVP 0.10% w/v) of -166 J mol^-1 K^-1, a ΔH ([2]; PVP 0.25% w/v) of -21.4 kcal/mol and a ΔS ([2]; PVP 0.25% w/v) of -213 J mol^-1 K^-1. For the same compound, the ΔH ([2]; PVP 0.50% w/v) was -19.4 kcal/mol and the ΔS ([2]; PVP 0.50% w/v) was -185 J mol^-1 K^-1.
For `Clc1ccc(COC(Cn2ccnc2)c2ccc(Cl)cc2Cl)c(Cl)c1` (stereo not drawn) [Miconazole, miconazole], the solubility (physchem [3]; 0.25% cmc + 10% hpbetacd) was 2500 µg/mL, the solubility (physchem [3]; aqueous 0.25% cmc) was 60 µg/mL (≈ 0.144 mM) and the solubility (physchem [3]; aqueous 10% hpbetacd) was 1980 µg/mL (≈ 4.76 mM). For the same compound, the solubility (physchem [3]; water) was 40 µg/mL (≈ 0.0961 mM), the solubility at 72 h (physchem [7]; 0.25% cmc) was 3310 µg/mL (≈ 7.95 mM) and the solubility at 72 h (physchem [7]) was 2510 µg/mL (≈ 6.03 mM). The solubility at 72 h (physchem [5]; 0.25% pvp, 10% hpβcd) was 3400 µg/mL (≈ 8.17 mM), the solubility at 72 h (physchem [5]; 10% hpβcd ms 0.7) was 2360 µg/mL (≈ 5.67 mM) and the solubility at 72 h (physchem [5]; aqueous 0.25% pvp) was 200 µg/mL (≈ 0.481 mM). For the same compound, the solubility at 72 h (physchem [5]; water) was 40 µg/mL (≈ 0.0961 mM), the solubility (physchem [6]; 0.25% cmc in water) was 60 µg/mL (≈ 0.144 mM) and the solubility (physchem [6]; 0.25% cmc, 10% hpbcd) was 2500 µg/mL (≈ 6.01 mM). For the same compound, the solubility (physchem [6]; [11]) was 310 µg/mL (≈ 0.745 mM), the solubility (physchem [6]; [12]) was 2220 µg/mL (≈ 5.33 mM) and the solubility (physchem [6]; 10% hpbcd in water) was 1980 µg/mL (≈ 4.76 mM). It also gave a solubility (physchem [6]; [13]) of 12600 µg/mL (≈ 30.2 mM) and a solubility (physchem [6]; water) of 40 µg/mL (≈ 0.0961 mM).
